Experimental data published in PMC6199744, “Development of Chemical Proteomics for the Folateome and Analysis of the Kinetoplastid Folateome” (ACS Infectious Diseases, 2018).
Read-outs that look alike come from different tables or passages of the source.

How the values were obtained:
Format in all cases: binding
[1] = molecular target: T1, HeLa cell extract proteins (Homo sapiens, UniProt P25787)
T1 construct: endogenous in cells; host or cells: HeLa cell extract
T1 sequence (P25787 1-234): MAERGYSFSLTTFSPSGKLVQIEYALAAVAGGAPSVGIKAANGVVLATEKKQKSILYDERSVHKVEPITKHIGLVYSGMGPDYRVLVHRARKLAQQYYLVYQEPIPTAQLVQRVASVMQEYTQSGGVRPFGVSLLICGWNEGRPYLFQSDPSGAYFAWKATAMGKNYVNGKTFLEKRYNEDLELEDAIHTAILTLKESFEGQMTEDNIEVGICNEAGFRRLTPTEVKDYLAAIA

[2] = molecular target: T2, HeLa cell extract proteins (Homo sapiens, UniProt Q6YHU6)
T2 construct: endogenous in cells; host or cells: HeLa cell extract
T2 sequence (Q6YHU6 whole entry): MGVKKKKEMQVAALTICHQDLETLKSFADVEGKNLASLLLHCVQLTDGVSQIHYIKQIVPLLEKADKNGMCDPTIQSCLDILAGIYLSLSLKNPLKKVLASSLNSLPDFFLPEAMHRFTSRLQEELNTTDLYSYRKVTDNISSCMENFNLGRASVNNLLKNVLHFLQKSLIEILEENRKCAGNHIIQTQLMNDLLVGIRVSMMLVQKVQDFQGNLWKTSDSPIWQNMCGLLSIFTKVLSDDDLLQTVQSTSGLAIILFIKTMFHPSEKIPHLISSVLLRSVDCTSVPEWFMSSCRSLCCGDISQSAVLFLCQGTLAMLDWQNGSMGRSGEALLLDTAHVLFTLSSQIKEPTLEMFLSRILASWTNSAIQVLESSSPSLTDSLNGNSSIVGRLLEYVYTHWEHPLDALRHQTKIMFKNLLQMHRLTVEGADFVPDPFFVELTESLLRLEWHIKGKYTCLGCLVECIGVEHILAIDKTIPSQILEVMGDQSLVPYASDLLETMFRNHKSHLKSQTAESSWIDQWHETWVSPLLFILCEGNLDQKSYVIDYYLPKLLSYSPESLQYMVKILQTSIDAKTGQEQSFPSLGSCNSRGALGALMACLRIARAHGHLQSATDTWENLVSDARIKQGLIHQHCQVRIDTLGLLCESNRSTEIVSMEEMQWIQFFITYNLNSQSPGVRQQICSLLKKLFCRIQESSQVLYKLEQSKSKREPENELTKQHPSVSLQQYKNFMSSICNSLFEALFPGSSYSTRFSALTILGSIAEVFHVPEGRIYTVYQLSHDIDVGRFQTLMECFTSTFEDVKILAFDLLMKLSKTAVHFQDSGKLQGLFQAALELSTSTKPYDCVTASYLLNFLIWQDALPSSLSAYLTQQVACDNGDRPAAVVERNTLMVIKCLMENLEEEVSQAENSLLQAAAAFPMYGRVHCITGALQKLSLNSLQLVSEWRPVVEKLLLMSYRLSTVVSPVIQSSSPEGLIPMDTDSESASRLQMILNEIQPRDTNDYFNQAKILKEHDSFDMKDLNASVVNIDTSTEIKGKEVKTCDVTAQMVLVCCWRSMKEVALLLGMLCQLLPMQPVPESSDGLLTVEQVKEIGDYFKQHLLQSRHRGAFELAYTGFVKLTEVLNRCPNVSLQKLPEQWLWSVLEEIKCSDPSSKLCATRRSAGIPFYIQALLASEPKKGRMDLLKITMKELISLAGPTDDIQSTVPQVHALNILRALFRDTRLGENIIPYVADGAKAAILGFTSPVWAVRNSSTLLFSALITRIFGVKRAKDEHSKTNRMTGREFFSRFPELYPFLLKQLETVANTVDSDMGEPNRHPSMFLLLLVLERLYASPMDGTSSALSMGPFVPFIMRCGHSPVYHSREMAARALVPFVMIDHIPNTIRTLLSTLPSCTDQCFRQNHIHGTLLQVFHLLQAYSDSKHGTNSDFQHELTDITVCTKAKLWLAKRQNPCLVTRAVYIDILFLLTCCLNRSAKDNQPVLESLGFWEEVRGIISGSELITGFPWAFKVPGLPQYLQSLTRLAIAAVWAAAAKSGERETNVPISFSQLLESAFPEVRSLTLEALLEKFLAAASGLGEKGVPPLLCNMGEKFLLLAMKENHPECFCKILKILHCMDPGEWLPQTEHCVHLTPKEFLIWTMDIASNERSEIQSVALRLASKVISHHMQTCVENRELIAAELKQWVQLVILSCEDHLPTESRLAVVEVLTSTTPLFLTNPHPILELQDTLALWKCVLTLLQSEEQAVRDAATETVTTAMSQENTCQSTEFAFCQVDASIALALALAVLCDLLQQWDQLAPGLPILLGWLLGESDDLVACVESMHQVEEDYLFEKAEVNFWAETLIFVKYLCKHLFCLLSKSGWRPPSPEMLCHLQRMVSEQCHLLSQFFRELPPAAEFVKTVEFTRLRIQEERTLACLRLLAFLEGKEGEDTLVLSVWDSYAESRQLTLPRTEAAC

[3] = molecular target: T3, HeLa cell extract proteins (Homo sapiens, UniProt A5YKK6)
T3 construct: endogenous in cells; host or cells: HeLa cell extract
T3 sequence (A5YKK6 whole entry): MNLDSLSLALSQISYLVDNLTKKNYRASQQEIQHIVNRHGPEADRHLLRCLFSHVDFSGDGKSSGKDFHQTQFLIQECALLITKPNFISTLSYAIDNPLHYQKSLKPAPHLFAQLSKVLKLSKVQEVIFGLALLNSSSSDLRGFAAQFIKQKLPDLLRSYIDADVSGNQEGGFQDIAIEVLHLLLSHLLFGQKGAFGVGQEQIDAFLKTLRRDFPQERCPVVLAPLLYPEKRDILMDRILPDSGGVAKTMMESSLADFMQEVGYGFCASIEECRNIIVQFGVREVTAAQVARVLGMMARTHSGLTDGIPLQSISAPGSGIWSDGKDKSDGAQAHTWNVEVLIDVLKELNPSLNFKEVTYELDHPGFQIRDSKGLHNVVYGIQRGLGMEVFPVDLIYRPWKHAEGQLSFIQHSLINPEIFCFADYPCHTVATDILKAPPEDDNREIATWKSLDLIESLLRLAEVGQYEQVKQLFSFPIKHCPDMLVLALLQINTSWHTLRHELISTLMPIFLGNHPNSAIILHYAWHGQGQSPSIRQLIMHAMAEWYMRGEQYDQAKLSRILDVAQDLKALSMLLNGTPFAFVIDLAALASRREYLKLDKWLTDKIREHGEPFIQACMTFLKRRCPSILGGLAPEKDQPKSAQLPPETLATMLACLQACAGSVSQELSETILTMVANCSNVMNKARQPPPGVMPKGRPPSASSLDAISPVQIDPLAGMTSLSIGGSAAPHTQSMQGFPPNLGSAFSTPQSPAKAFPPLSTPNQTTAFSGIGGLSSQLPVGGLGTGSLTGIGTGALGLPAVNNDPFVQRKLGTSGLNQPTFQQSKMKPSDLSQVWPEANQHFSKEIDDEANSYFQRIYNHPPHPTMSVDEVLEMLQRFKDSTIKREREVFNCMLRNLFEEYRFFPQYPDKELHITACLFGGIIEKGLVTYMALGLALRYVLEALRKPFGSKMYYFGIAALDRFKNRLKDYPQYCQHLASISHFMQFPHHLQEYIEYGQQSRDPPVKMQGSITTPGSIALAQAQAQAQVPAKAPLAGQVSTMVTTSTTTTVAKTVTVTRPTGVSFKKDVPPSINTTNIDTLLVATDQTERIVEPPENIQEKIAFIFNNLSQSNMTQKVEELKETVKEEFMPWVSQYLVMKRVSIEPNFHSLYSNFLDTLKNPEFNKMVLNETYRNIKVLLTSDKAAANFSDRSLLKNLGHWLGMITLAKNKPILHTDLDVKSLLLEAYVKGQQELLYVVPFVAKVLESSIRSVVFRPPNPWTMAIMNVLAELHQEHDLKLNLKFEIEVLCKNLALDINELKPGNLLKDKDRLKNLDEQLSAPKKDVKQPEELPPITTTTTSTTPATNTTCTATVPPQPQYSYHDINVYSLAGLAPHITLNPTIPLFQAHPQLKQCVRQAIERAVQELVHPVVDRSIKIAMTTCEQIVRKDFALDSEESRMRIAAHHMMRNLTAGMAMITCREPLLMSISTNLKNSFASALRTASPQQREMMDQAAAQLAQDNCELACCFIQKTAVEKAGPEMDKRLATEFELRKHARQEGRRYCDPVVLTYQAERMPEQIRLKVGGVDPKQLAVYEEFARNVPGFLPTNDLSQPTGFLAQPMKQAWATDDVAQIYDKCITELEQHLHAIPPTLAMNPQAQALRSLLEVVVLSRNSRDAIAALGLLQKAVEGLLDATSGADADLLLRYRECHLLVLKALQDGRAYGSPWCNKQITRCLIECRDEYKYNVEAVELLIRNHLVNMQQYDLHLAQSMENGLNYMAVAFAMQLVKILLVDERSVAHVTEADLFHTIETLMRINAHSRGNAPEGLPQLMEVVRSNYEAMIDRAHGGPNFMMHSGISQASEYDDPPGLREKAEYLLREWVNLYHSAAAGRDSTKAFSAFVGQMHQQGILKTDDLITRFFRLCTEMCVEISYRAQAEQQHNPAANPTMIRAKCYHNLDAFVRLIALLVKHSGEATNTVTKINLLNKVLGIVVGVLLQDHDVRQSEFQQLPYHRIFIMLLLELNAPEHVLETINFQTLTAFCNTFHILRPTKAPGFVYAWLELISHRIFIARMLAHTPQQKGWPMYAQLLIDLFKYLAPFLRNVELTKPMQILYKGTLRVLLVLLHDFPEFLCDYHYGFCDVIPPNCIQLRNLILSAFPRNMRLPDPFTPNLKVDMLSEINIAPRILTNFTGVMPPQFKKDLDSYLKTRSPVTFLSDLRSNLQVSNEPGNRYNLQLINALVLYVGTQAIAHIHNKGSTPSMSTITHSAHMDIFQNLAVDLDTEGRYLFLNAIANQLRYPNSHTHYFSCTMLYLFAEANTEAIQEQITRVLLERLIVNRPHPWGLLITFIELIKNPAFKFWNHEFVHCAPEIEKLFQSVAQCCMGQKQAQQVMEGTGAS

[4] = molecular target: T4, HeLa cell extract proteins (Homo sapiens, UniProt Q9UBN7)
T4 construct: endogenous in cells; host or cells: HeLa cell extract
T4 sequence (Q9UBN7 1-1215): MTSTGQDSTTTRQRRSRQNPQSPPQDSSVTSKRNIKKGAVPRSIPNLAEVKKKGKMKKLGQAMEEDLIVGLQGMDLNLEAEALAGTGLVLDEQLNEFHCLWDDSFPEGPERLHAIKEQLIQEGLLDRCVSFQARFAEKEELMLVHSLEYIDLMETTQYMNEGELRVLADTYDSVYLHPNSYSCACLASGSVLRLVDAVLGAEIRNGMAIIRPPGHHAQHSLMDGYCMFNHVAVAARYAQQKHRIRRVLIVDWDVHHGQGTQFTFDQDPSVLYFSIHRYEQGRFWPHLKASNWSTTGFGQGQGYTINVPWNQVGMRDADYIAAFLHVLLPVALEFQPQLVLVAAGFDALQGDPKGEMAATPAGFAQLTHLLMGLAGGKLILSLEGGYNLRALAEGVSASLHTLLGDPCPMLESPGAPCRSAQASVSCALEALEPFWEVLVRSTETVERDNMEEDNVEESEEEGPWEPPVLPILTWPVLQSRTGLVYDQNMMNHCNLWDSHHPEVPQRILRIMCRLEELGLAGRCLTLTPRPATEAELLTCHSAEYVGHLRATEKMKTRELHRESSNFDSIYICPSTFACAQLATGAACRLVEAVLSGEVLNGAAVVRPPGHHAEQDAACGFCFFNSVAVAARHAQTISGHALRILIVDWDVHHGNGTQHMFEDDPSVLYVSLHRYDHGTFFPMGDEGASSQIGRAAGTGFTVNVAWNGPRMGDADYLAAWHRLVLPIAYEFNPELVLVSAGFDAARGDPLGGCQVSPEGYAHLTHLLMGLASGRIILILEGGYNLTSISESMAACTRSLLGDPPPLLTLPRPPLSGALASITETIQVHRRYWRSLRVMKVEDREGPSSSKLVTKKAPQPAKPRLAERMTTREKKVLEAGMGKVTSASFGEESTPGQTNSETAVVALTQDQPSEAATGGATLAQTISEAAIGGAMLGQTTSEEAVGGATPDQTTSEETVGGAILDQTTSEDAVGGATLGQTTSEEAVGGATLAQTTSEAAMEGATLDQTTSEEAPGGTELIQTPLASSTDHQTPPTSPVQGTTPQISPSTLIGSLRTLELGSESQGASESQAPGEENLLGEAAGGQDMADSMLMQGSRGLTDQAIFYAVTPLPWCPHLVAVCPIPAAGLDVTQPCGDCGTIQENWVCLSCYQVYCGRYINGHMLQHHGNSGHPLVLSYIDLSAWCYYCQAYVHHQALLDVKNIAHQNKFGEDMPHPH

[5] = molecular target: T5, HeLa cell extract proteins (Homo sapiens, UniProt Q6P1J9)
T5 construct: endogenous in cells; host or cells: HeLa cell extract

[6] = molecular target: T6, HeLa cell extract proteins (Homo sapiens, UniProt Q9UNK9)
T6 construct: endogenous in cells; host or cells: HeLa cell extract
T6 sequence (Q9UNK9 1-670): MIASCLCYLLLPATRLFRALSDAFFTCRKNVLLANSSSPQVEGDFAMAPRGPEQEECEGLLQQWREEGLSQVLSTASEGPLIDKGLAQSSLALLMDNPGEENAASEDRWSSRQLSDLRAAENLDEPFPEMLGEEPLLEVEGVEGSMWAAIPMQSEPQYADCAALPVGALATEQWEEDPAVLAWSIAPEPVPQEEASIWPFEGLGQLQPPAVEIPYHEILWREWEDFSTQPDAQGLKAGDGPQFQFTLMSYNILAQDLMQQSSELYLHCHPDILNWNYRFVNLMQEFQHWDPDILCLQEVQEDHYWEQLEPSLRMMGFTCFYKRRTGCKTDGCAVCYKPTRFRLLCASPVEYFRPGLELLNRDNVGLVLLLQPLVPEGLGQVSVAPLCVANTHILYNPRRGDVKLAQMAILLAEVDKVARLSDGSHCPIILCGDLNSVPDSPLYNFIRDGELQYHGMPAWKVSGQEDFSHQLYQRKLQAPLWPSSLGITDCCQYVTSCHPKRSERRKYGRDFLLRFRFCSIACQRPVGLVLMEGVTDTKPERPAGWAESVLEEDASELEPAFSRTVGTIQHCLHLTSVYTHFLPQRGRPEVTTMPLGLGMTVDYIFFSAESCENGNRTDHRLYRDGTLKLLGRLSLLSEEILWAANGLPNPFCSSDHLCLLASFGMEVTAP

[7] = molecular target: T7, HeLa cell extract proteins (Homo sapiens, UniProt P27797)
T7 construct: endogenous in cells; host or cells: HeLa cell extract
T7 sequence (P27797 18-417): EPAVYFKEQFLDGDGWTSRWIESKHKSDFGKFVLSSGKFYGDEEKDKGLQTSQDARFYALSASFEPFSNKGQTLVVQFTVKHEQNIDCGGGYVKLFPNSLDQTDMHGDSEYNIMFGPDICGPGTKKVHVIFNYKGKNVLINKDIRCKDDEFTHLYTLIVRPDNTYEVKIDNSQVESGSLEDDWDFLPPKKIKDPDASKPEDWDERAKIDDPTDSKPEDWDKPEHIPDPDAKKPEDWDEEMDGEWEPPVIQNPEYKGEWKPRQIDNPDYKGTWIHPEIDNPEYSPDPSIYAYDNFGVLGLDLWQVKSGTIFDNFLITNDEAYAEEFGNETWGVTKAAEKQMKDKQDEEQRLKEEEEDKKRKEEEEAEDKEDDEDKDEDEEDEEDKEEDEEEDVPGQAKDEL

[8] = molecular target: T8, HeLa cell extract proteins (Homo sapiens, UniProt P18669)
T8 construct: endogenous in cells; host or cells: HeLa cell extract
T8 sequence (P18669 whole entry): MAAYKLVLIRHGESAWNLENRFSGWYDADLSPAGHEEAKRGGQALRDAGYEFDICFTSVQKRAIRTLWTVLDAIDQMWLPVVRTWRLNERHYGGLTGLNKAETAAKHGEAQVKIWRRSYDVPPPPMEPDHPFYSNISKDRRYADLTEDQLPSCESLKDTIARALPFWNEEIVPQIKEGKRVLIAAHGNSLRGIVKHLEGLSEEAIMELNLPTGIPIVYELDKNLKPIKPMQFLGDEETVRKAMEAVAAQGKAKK

[9] = HeLa, protein PGAM1 (SIMILAR TO PHOSPHOGLYCERATE MUTASE 1 ISOFORM 1.)

## Nc1nc2cccc(-c3ccccc3)c2n1Cc1ccc(Cl)c(Cl)c1 [compound 3]
[1]; protein PSMA2, HeLa
  fold changes relative to vehicle control: 0.95
[2]; captured protein THADA, HeLa
  fold changes relative to vehicle control: 1.09
[3]; protein CNOT1, HeLa
  fold changes relative to vehicle control: 1.37
[4]; captured protein HDAC6, HeLa
  fold changes relative to vehicle control: 1.14
[5]; protein CDC73, HeLa
  fold changes relative to vehicle control: 0.88
[6]; captured protein ANGEL1, HeLa
  fold changes relative to vehicle control: 0.95
[7]; HeLa, protein CALR (CA[…].)
  fold changes relative to vehicle control: 0.77 fold
[8]; HeLa, protein PGAM1 (SIMILAR TO PHOSPH[…] 1 ISOFORM 1.)
  fold changes relative to vehicle control: 0.9 fold

## Nc1nc2[nH]cc(CCc3ccc(C(=O)N[C@@H](CCC(=O)O)C(=O)O)cc3)c2c(=O)[nH]1 [PTX, pemetrexed]
[1]
  fold changes relative to vehicle control: 1.02
[2]
  fold changes relative to vehicle control: 0.98
[3]
  fold changes relative to vehicle control: 1
[4]
  fold changes relative to vehicle control: 0.98
[5]
  fold changes relative to vehicle control: 0.76
[6]
  fold changes relative to vehicle control: 0.94
[7]
  fold changes relative to vehicle control: 1.22
[8]
  fold changes relative to vehicle control: 1.24

## Nc1nc2c(c(=O)[nH]1)N(C=O)C(CNc1ccc(C(=O)N[C@@H](CCC(=O)O)C(=O)O)cc1)CN2 (some centres unmarked) [LEU, leucovorin]
[1]; HeLa, captured protein PSMA2
  fold changes relative to vehicle control: 0.98
[2]; HeLa, captured protein THADA
  fold changes relative to vehicle control: 1.06
[3]; HeLa, captured protein CNOT1
  fold changes relative to vehicle control: 0.93
[4]; HeLa, captured protein HDAC6
  fold changes relative to vehicle control: 1.02
[5]; protein CDC73, HeLa
  fold changes relative to vehicle control: 0.81
[6]; protein ANGEL1, HeLa
  fold changes relative to vehicle control: 0.84
[7]; HeLa, protein CALR
  fold changes relative to vehicle control: 1.15
[8]; HeLa, protein PGAM1
  fold changes relative to vehicle control: 1.05

## CCCCCCOc1cccc(Cc2cnc(N)nc2N)c1 [compound 2]
[1]; protein PSMA2, HeLa
  fold changes relative to vehicle control: 1.17
[2]; captured protein THADA, HeLa
  fold changes relative to vehicle control: 1.16
[3]; protein CNOT1, HeLa
  fold changes relative to vehicle control: 1.32
[4]; captured protein HDAC6, HeLa
  fold changes relative to vehicle control: 1.1
[5]; protein CDC73, HeLa
  fold changes relative to vehicle control: 1.08
[6]; captured protein ANGEL1, HeLa
  fold changes relative to vehicle control: 0.94
[7]; HeLa, protein CALR (CALRETICULIN PRECURSOR.)
  fold changes relative to vehicle control: 3.14 fold
[8]; [9]
  fold changes relative to vehicle control: 2.64 fold

## NCCOCCOCC(=O)Nc1nc2ncc(CNc3ccc(C(=O)NC(CCC(=O)O)C(=O)O)cc3)nc2c(=O)[nH]1 (centres unmarked) [compound 6]
[1]; HeLa, captured protein PSMA2
  fold changes relative to vehicle control: 1.05
[2]; HeLa, captured protein THADA
  fold changes relative to vehicle control: 1.11
[3]; HeLa, captured protein CNOT1
  fold changes relative to vehicle control: 1.17
[4]; HeLa, captured protein HDAC6
  fold changes relative to vehicle control: 1.06
[5]; protein CDC73, HeLa
  fold changes relative to vehicle control: 0.88
[6]; protein ANGEL1, HeLa
  fold changes relative to vehicle control: 1.02
[7]; HeLa, protein CALR
  fold changes relative to vehicle control: 1.33
[8]; HeLa, protein PGAM1
  fold changes relative to vehicle control: 1.41

## CCCCCCOc1ccc(Cc2cnc(N)nc2N)cc1 [compound 1]
[1]; protein PSMA2, HeLa
  fold changes relative to vehicle control: 1.14
[2]; captured protein THADA, HeLa
  fold changes relative to vehicle control: 1.06
[3]; protein CNOT1, HeLa
  fold changes relative to vehicle control: 1.3
[4]; captured protein HDAC6, HeLa
  fold changes relative to vehicle control: 0.95
[5]; protein CDC73, HeLa
  fold changes relative to vehicle control: 1.18
[6]; captured protein ANGEL1, HeLa
  fold changes relative to vehicle control: 1.04
[7]; HeLa, protein CALR (CA[…].)
  fold changes relative to vehicle control: 1.46 fold
[8]; [9]
  fold changes relative to vehicle control: 1.5 fold

## NCCCNc1ccc(C(=O)NC(CCC(=O)O)C(=O)O)cc1 (centres unmarked) [compound 7]
[1]; HeLa, captured protein PSMA2
  fold changes relative to vehicle control: 1.02
[2]; HeLa, captured protein THADA
  fold changes relative to vehicle control: 1.12
[3]; HeLa, captured protein CNOT1
  fold changes relative to vehicle control: 1.16
[4]; HeLa, captured protein HDAC6
  fold changes relative to vehicle control: 1.02
[5]; protein CDC73, HeLa
  fold changes relative to vehicle control: 0.76
[6]; protein ANGEL1, HeLa
  fold changes relative to vehicle control: 1
[7]; HeLa, protein CALR
  fold changes relative to vehicle control: 0.93
[8]; HeLa, protein PGAM1
  fold changes relative to vehicle control: 0.99
